Blank lines part the entries; values can stand above or below the molecule they belong to.
Key:
[1] = test system: human coronary artery smooth muscle cells; experiment: Anti-proliferative activity in synchronized cultured cells stimulated with two percent fetal bovine serum; type: cell-based; settings: for effect on the anti-proliferative activity of rapamycin when added: added to cells treated with rapamycin
Description: (§1) The multiple curves represent various concentrations of topotecan ranging from zero to three hundred nanomolar concentrations.
(§2) The multiple curves represent various concentrations of etoposide ranging from zero to eight hundred nanomolar concentrations.
The multiple curves represent various concentrations of Panzem® ranging from zero to 100 micromolar concentrations.

[2] = test system: human coronary artery smooth muscle cell; experiment: MTS cytotoxicity assay; type: cell-based; settings: concentrations up to 30,000.00 nanomolar, FIG. 69
Description: Typically, a control is utilized to determine baseline toxicity.

[3] = test system: cell viability; experiment: Cell viability assay; type: cell-based
Description: as §1, §2

[4] = Drug concentration in liquid formulations by liquid chromatography / HPLC; type: physicochemical
Experimental: Table 8, shown below, summarizes the concentrations of the excipient, the co-solvents and the drug for four different liquid formulations in accordance with exemplary embodiments of the present invention.
In another exemplary embodiment, the liquid formulation of sirolimus comprises water and ethanol as co-solvents and Vitamin E TPGS as the excipient. The liquid formulation was created utilizing the following process. Two hundred milligrams of sirolimus and two grams of ethanol were added to a pre-weighed twenty milliliter scintillation vial. The vial was vortexed and sonicated until the sirolimus was completely dissolved. Approximately six hundred milligrams of Vitamin E TPGS was then added to the solution of ethanol and sirolimus. The vial was vortexed again until a clear yellowish solution was obtained. Nitrogen gas was then used to reduce the amount of ethanol in the vial to approximately two hundred twenty-nine milligrams. In a separate vial, three hundred milligrams of Vitamin E TPGS was dissolved in eleven milliliters of purified water while undergoing vortexing. The Vitamin E TPGS and water solution was then added to the first vial containing the sirolimus, Vitamin E TPGS and ethanol. The first vial was then vortexed vigorously and continuously for three minutes. […] The foam gradually disappeared after sitting at room temperature. […]

[5] = test system: human smooth muscle cells; experiment: Cladribine Example: PDGF-stimulated cell proliferation, smooth muscle cells; type: cell-based; settings: from the IC50 values
Experimental: To assess the ability of cladribine to prevent cell proliferation, human smooth muscle or endothelial cells (Clonetics, Walkersville, Md.) were seeded at a density of 2000 cells/cm^2 (approximately 3600 cells/well) into each well of 12-well plates and cultured with 1.5 ml of growth medium containing five percent fetal calf serum (FCS). After twenty-four hours, the growth medium was changed and fresh medium containing 10 ng/ml platelet-derived growth factor AB (PDGF AB; LIFE Technologies), as well as various concentrations of cladribine (0.001-10,000 nM) were added with triplicate wells. Medium was replaced with fresh cladribine-containing medium after three days. On day six, cells were detached by trypsinization to yield a cell suspension, lightly centrifuged to pellet and then counted manually using a Neubauer hemocytometer system. Cell viability was assessed by trypan blue exclusion.

[6] = test system: human coronary artery smooth muscle cells; experiment: Anti-proliferative activity in non-synchronized cultured cells stimulated with two percent fetal bovine serum; type: cell-based; settings: for effect on the anti-proliferative activity of rapamycin when added: non-synchronized cells, added to cells treated with rapamycin
Description: The multiple curves represent various concentrations of mycophenolic acid ranging from zero to one thousand nanomolar concentrations. […] This potentiation observed in cultured coronary artery smooth muscle cells preferably translates to an enhancement in anti-restenotic efficacy following vascular injury and a reduction in the required amount of either agent to achieve the desired anti-restenotic effect.
FIG. 58 illustrates, in graphical format, the anti-proliferative activity of cladribine in non-synchronized cultured human coronary artery smooth muscle cells stimulated with two percent fetal bovine serum.
The multiple curves represent various concentrations of cladribine ranging from zero to nine hundred nanomolar concentrations. […] As illustrated, the percent inhibition increases substantially as the dose of cladribine increases.

[7] = test system: human coronary artery smooth muscle cell; experiment: In vitro cell culture study of coronary artery smooth muscle cell proliferation; type: cell-based
Description: FIG. 51 is a graph of the inhibition of coronary artery smooth muscle cells by trichostatin A in a cell culture study.

[8] = test system: tumor cell lines; settings: cited from earlier work

SMILES: COc1cc2c(cc1O)CC[C@@H]1[C@@H]2CC[C@]2(C)[C@@H](O)CC[C@@H]12 [Panzem®, 2-methoxyestradiol]
- inhibition of human coronary artery smooth muscle cell proliferation in vitro ([1]; FIG. 66): extremely effective inhibitor
- effect on the anti-proliferative activity of rapamycin when added [1]: increases the percent of inhibition of rapamycin alone
- cell survival (MTS assay) [2]: do not reduce human coronary artery smooth muscle cell survival

SMILES: CC[C@@]1(O)C(=O)OCc2c1cc1n(c2=O)Cc2cc3c(CN(C)C)c(O)ccc3nc2-1 [Topotecan, topotecan]
- effect on the anti-proliferative activity of rapamycin when added [1]: increases the percent inhibition of rapamycin alone
- cytotoxicity ([3]; concentrations up to one micromolar): non-cytotoxic

- concentration relative to the solubility of sirolimus in water ([4]; 4 mg/ml formulation with PEG 200, ethanol and water): four hundred to about one thousand
SMILES: CO[C@H]1C[C@@H]2CC[C@@H](C)[C@@](O)(O2)C(=O)C(=O)N2CCCC[C@H]2C(=O)O[C@H]([C@H](C)C[C@@H]2CC[C@@H](O)[C@H](OC)C2)CC(=O)[C@H](C)/C=C(\C)[C@@H](O)[C@@H](OC)C(=O)[C@H](C)C[C@H](C)/C=C/C=C/C=C/1C [Rapamycin, rapamycin]

- concentration in the final solution (HPLC assay) ([4]; ethanol (less than two percent), Vitamin E TPGS and water): 15000 µg/mL
SMILES: CO[C@H]1C[C@@H]2CC[C@@H](C)[C@@](O)(O2)C(=O)C(=O)N2CCCC[C@H]2C(=O)O[C@H]([C@H](C)C[C@@H]2CC[C@@H](OC(=O)C(C)(CO)CO)[C@H](OC)C2)CC(=O)[C@H](C)/C=C(\C)[C@@H](O)[C@@H](OC)C(=O)[C@H](C)C[C@H](C)/C=C/C=C/C=C/1C [CCI-779]

SMILES: COc1cc([C@@H]2c3cc4c(cc3[C@@H](O[C@@H]3O[C@@H]5CO[C@@H](C)O[C@H]5[C@H](O)[C@H]3O)[C@H]3COC(=O)[C@H]23)OCO4)cc(OC)c1O [Etoposide, etoposide]
- effect on the anti-proliferative activity of rapamycin when added [1]: increases the percent inhibition of rapamycin alone
- cytotoxicity ([3]; concentrations up to ten micromolar): non-cytotoxic

SMILES: Nc1nc(Cl)nc2c1ncn2[C@H]1C[C@H](O)[C@@H](CO)O1 [Cladribine, 2-chlorodeoxyadenosine]
- potency as inhibitor of smooth muscle cells relative to endothelial cells [5]: approximately twice
- effect on the anti-proliferative activity of rapamycin when added [6]: increases the percent inhibition of rapamycin alone
- inhibition of human coronary artery smooth muscle cell proliferation ([6]; non-synchronized, two percent fetal bovine serum, FIG. 58): completely inhibits

SMILES: COc1c(C)c2c(c(O)c1C/C=C(\C)CCC(=O)O)C(=O)OC2 [mycophenolic acid]
- effect on the anti-proliferative activity of rapamycin when added [6]: potentiates the anti-proliferative activity of rapamycin

SMILES: CC(/C=C/C(=O)NO)=C\[C@@H](C)C(=O)c1ccc(N(C)C)cc1 [trichostatin A]
- IC50 ([7]; human coronary artery smooth muscle cell proliferation, read-out: anti-proliferative IC50): ~6 nM
- inhibition of human coronary artery smooth muscle cell proliferation ([7]; in vitro cell culture): completely inhibit
- anti-proliferative IC50 [8]: low nM range

Source: patent publication US8747881B2, “Intraluminal medical devices in combination with therapeutic agents” (Cordis Corporation, priority 2003, dated 2014)
